Patent US12384789B2, “Compounds for treating Huntington's disease” (PTC Therapeutics, Inc., priority 2017, dated 2025)

System: Endogenous Huntingtin Protein
Test: Endogenous Huntingtin Protein Assay (Meso Scale Discovery ELISA-based electrochemiluminescence)
Assay type: cell-based
Conditions: MSD electrochemiluminescence, Table 1
In short: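 MSD electrochemiluminescence sandwich ELISA: MW1 (expanded polyQ) or MAB2166 capture antibody at 1 μg/mL, samples incubated overnight at 4° C. Detection with rabbit monoclonal #5656S then SULFO-TAG anti-rabbit antibody, each 0.25 μg/mL for 1 h at room temperature.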

Row | SMILES | IC50 [nM]
1 | Cc1nc2c(C)cc(-c3cc(F)c4cc(C5CCNCC5)nnc4c3)nc2s1 [Compound 133, 7-(2,7-dimethyl[1,3]thiazolo[5,4-b]pyridin-5-yl)-5-fluoro-3-(piperidin-4-yl)cinnoline] | ≤ 100
2 | Cc1cn2nc(-c3cc(F)c4cc(N5CCC(N(C)C)C5)nnc4c3)cc(C)c2n1 (stereo not shown) [Compound 86, 1-[7-(2,8-dimethylimidazo[1,2-b]pyridazin-6-yl)-5-fluorocinnolin-3-yl]-N,N-dimethylpyrrolidin-3-amine] | ≤ 100
3 | Cc1cc2nc(-c3cc(F)c4cc(C5CCNCC5)nnc4c3)sc2c(C)n1 [Compound 196, 7-(4,6-dimethyl[1,3]thiazolo[5,4-c]pyridin-2-yl)-5-fluoro-3-(piperidin-4-yl)cinnoline] | ≤ 100
4 | Cc1cc(-c2cc3cnc(C4CCNCC4)nc3cc2F)cc2cn(C)nc12 [Compound 39, 6-(2,7-dimethyl-2H-indazol-5-yl)-7-fluoro-2-(piperidin-4-yl)quinazoline] | 1000 to 3000
5 | CCN1CC=C(c2cc(F)c3nc(-c4cc(F)c5nn(C)cc5c4)ncc3c2)CC1 [Compound 201, 6-(1-ethyl-1,2,3,6-tetrahydropyridin-4-yl)-8-fluoro-2-(7-fluoro-2-methyl-2H-indazol-5-yl)quinazoline] | ≤ 100
6 | Cc1nc2c(C)cc(-c3cc(F)c4cc(C5CCNCC5)nnc4c3)nc2o1 [Compound 148, 7-(2,7-dimethyl[1,3]oxazolo[5,4-b]pyridin-5-yl)-5-fluoro-3-(piperidin-4-yl)cinnoline] | ≤ 100
7 | Cc1cc(-c2ccc3nc(C4CC(C)(C)NC(C)(C)C4)ccc3c2)cc2cn(C)nc12 [Compound 14, 6-(2,7-dimethyl-2H-indazol-5-yl)-2-(2,2,6,6-tetramethylpiperidin-4-yl)quinoline] | 100 to 500
8 | Cc1nc2c(C)cc(-c3cc(F)c4cc(C5CCNCC5)nnc4c3)nc2[nH]1 [Compound 126, 7-(2,7-dimethyl-3H-imidazo[4,5-b]pyridin-5-yl)-5-fluoro-3-(piperidin-4-yl)cinnoline] | ≤ 100
9 | Cc1cn2nc(-c3ccc4nc(C5CCNCC5)ccc4c3)cc(C)c2n1 [Compound 19, 6-(2,8-dimethylimidazo[1,2-b]pyridazin-6-yl)-2-(piperidin-4-yl)quinoline] | ≤ 100
10 | Cc1cn2nc(-c3cc(F)c4cc(C5CCNCC5)nnc4c3)cc(C3CC3)c2n1 [Compound 112, 7-(8-cyclopropyl-2-methylimidazo[1,2-b]pyridazin-6-yl)-5-fluoro-3-(piperidin-4-yl)cinnoline] | ≤ 100
11 | Cc1cn2nc(-c3cc(F)c4cc(C5CCNCC5)nnc4c3)cc(C(C)C)c2n1 [Compound 211, 5-fluoro-7-[2-methyl-8-(propan-2-yl)imidazo[1,2-b]pyridazin-6-yl]-3-(piperidin-4-yl)cinnoline] | ≤ 100
12 | Cn1cc2cc(-c3ccc4cc(C5CCNCC5)ccc4n3)ccc2n1 [Compound 1, 2-(2-methyl-2H-indazol-5-yl)-6-(piperidin-4-yl)quinoline] | 1000 to 3000
13 | CCCc1cc(-c2cc(F)c3cc(C4CCN(CC)CC4)nnc3c2)nn2cc(C)nc12 [Compound 212, 3-(1-ethylpiperidin-4-yl)-5-fluoro-7-(2-methyl-8-propylimidazo[1,2-b]pyridazin-6-yl)cinnoline] | 100 to 500
14 | Cc1cn2cc(-c3cc(F)c4cc(C5CCNCC5)nnc4c3)cc(F)c2n1 [Compound 92, 5-fluoro-7-(8-fluoro-2-methylimidazo[1,2-a]pyridin-6-yl)-3-(piperidin-4-yl)cinnoline] | ≤ 100
15 | Cc1cc(-c2cnc3cc(C4CCNCC4)ccc3c2)cc2cn(C)nc12 [Compound 29, 3-(2,7-dimethyl-2H-indazol-5-yl)-7-(piperidin-4-yl)quinoline] | 1000 to 3000
16 | Cc1cc(-c2ccc3nc(N(C)C4CC(C)(C)NC(C)(C)C4)ccc3c2)cc2cn(C)nc12 [Compound 11, 6-(2,7-dimethyl-2H-indazol-5-yl)-N-methyl-N-(2,2,6,6-tetramethylpiperidin-4-yl)quinolin-2-amine] | 1000 to 3000
